Test results taken from US9610332B2, “Compositions and methods for modulating BRD4 bioactivity” (priority 2012, dated 2017).

What was measured:
U20S cells [1] = assay: H2AX phosphorylation / γH2AX foci after IR with Brd4 bromodomain inhibitor; format: cell-based, human
Procedure: For small molecule testing, cells were plated at 500 cells/well in 384-well plates. The day after plating, small molecules at different concentrations in 100 nL DMSO were pin transferred to cells with a CyBio robot, and cells were propagated for 16 hours.
All plates were treated with 10 Gy of 667 keV X-rays from a 137Cs source in a Gammacell irradiator (Atomic Energy of Canada, Ltd). A 0 hour control plate was not irradiated. The plates were returned to the incubator and fixed with 4.4% w/v paraformaldehyde in phosphate-buffered saline (PBS) at 1, 6, and 24 hours post irradiation. Plates were stored in PBS at 4° C. prior to staining. Fixed plates were washed 3 times with PBS and blocked with 24 IJL of GSDB (0.15% goat serum, 8.33% goat serum, 120 mM sodium phosphate, 225 mM NaCl) for 30 minutes. […]
U20S cells were plated on #1 glass coverslips (VWR) and were cultured in DMEM+Pen/Strep+10% v/v FBS (complete media) at 37° C. in a 5% CO2 atmosphere, then exposed to 10 Gy Ionizing radiation from a 137CS source in a Gammacell irradiator (Atomic Energy of Canada, Ltd). fixed in methanol, and processed for immuofluorescence using the antibodies indicated above. […] Quantitative image analysis was accomplished using CellProfiler (www.CellProfiler.org) or ImageJ software (http://rsb.info.nih.gov/nihimageJ).

Brd4 bromodomain 1 = Brd4 bromodomain 1 (Homo sapiens, UniProt O60885); conditions: as reported previously (Nature 468:1067 (2010)); cited from earlier work
CHEK2 mRNA = CHEK2 mRNA expression by RT-PCR; format: cell-based, human; conditions: short term treatment; FIG. 6B, 6C
Procedure: (§1) UCN01 was from Sigma (cat. #U6508) and was used at concentrations of 0.003-10 μM.

[2] = test system: U20S cells overexpressing Brd4 isoform B; assay: γH2AX foci / DDR signaling suppression in cells overexpressing Brd4 isoform B; format: cell-based, human; conditions: for sensitivity of suppression of DDR signaling by Brd4 isoform B overexpression to transcription or translation inhibition: a-amanitin 1-16 μM, cycloheximide 35-560 μM
Procedure: U20S cells were plated on #1 glass coverslips (VWR) and were cultured in DMEM+Pen/Strep+10% v/v FBS (complete media) at 37° C. in a 5% CO2 atmosphere, then exposed to 10 Gy Ionizing radiation from a 137CS source in a Gammacell irradiator (Atomic Energy of Canada, Ltd). fixed in methanol, and processed for immuofluorescence using the antibodies indicated above. Images were captured on a Zeiss Axiophot II microscope with a Hamamatsu CCD camera and processed with OpenLab/Volocity software. Quantitative image analysis was accomplished using CellProfiler (www.CellProfiler.org) or ImageJ software (http://rsb.info.nih.gov/nihimageJ).
as §1
3×10^6 U20S cells were plated and transiently transfected with pEGFP-C 1, isoform C, isoform B, isoform B, BD1 mutant, Brd4-NUT and truncated Brd4-NUT using Fugene 6 (Roche). These cells were exposed to 10 Gy Ionizing radiation and harvested 24 hrs later, fixed with 4% formaldehyde, extracted with 100% ethanol, processed for flow cytometry using the antibodies listed above. Data were analyzed using FlowJo (www.flowjo.com) software.
U20S cell lines stably expressing this shRNA or control hairpins (ineffective hairpins directed against human sequences of BAD and PUMA) were created using puromycin selection at 2 ug/mL. STEALTH siRNA against BRD4 and control were purchased from Invitrogen, and used according to manufacturer's instructions.

U20S cells [3] = assay: Image-based screen: G2/M arrest and mitotic entry (DNA content, pHH3) after irradiation; format: cell-based, human; conditions: 10 Gy IR, FIGS. 1B, 1D, 1F, 1G
Procedure: For both shRNA and small molecule screens, human U20S osteosarcoma cells (ATCC HTB-96) were grown in DMEM+Pen/Strep+10% v/v FBS (complete media) at 37° C. in a 5% CO2 atmosphere. All screens were carried out at passage 10-15. Cells were tested for mycoplasma by PCR prior to seeding and infection. U20S cells were seeded with a MicroFill (Biotek) in 384-well black, clear bottom plates (Greiner) at a density of 300 (shRNA) cells/well in 50 IJL of media, and allowed to attach overnight at 37° C. in a 5% CO2 atmosphere.
For shRNA screens, the media was exchanged the following day to complete media with 8 μg/mL polybrene using a JANUS workstation (PerkinElmer). Virus infection was carried out on an EP3 workstation (PerkinElmer) with 1.5 μL of hightiter retrovirus. […] Plates were centrifuged in a swinging-bucket rotor at 2250 rpm for 30 minutes following infection and returned to the incubator overnight. […]
Plates were allowed to equilibrate to room temperature for 30 minutes and imaged on a Cellomics ArrayScan VTI automated microscope with a 20× objective. […] Images were segmented and analyzed with CellProfiler cell image analysis software (Carpenter et al., Genome Biology, 2006, 7, R100). […]

## Cc1sc2c(c1C)C(c1ccc(Cl)cc1)=NC(CC(=O)OC(C)(C)C)c1nnc(C)n1-2 (single isomer, unassigned; (+)) [(+)JQ1]
U20S cells [1]; compound at 250 nM, 10 Gy IR
  H2AX phosphorylation following IR: enhanced H2AX phosphorylation following IR
U20S cells [1]; inhibition with JQ1 or short term Brd4 knockdown
  γH2AX foci formation after irradiation: sufficient to increase γH2AX foci formation after irradiation
Brd4 bromodomain 1
  inhibition of Brd4 bromodomain 1 versus bromodomain 2: more potent inhibition of Brd4 bromodomain 1 than bromodomain 2
CHEK2 mRNA
  CHEK2 mRNA: no change in CHEK2 mRNA
[2]; cells overexpressing Brd4 isoform B, compound at 250 nM
  reversal of the ability of Brd4 isoform B to suppress γH2AX foci formation: reversed

## CN[C@@H]1C[C@H]2O[C@@](C)([C@@H]1OC)n1c3ccccc3c3c4c(c5c6ccccc6n2c5c31)C(=O)N[C@@H]4O [UCN01]
U20S cells [3]
  G2/M arrest following irradiation / mitotic entry: abrogated the normal G2/M arrest following irradiation, leading to premature mitotic entry

## C[C@@H]1C[C@@H]([C@H](O)CC2CC(=O)NC(=O)C2)C(=O)[C@@H](C)C1 [cycloheximide]
[2]
  sensitivity of suppression of DDR signaling by Brd4 isoform B overexpression to transcription or translation inhibition: insensitive

## a-amanitin
[2]
  sensitivity of suppression of DDR signaling by Brd4 isoform B overexpression to transcription or translation inhibition: insensitive
